Measured values taken from ChEMBL document CHEMBL3779788, “Facile synthesis of 1,3-thiazolidin-4-ones as antitubercular agents” (Bioorg Med Chem Lett, 2016).
Values after ≈ are worked out from the molar mass of the structure shown.

Assays:
[1] = tested on: Mycobacterium tuberculosis; test: Antitubercular activity against dormant Mycobacterium tuberculosis H37Ra assessed as growth inhibition at 10 ug/mL by XTT reduction menadione assay; type: functional; settings: read-out: GI
[2] = Cytotoxicity against human A549 cells at 10 ug/mL by MTT assay; type: cell-based; settings: read-out: INH
[3] = tested on: Mycobacterium bovis BCG str. ATCC 35743; test: Antitubercular activity against dormant Mycobacterium bovis BCG ATCC 35743 assessed as growth inhibition at 3 ug/mL by NR assay; type: functional
Pseudomonas = test: Antibacterial activity against Pseudomonas after 18 hrs by broth dilution method; type: functional, organism-based
[4] = Cytotoxicity against human MCF7 cells at 3 ug/mL by MTT assay; type: cell-based; settings: read-out: INH
[5] = tested on: Mycobacterium tuberculosis; test: Antitubercular activity against dormant Mycobacterium tuberculosis H37Ra by XTT reduction menadione assay; type: functional, organism-based
[6] = tested on: Mycobacterium bovis BCG str. ATCC 35743; test: Antitubercular activity against dormant Mycobacterium bovis BCG ATCC 35743 assessed as growth inhibition at 30 ug/mL by NR assay; type: functional
[7] = Cytotoxicity against human HCT116 cells at 3 ug/mL by MTT assay; type: cell-based, HCT-116; settings: read-out: INH
[8] = (§1) Cytotoxicity against human MCF7 cells after 48 and 72 hrs by MTT assay; type: cell-based; settings: MCF7 cells
MCF7 = test: as §1; type: cell-based; settings: mcf7, 72 h
[9] = Cytotoxicity against human A549 cells at 3 ug/mL by MTT assay; type: cell-based; settings: read-out: INH
Staphylococcus aureus = test: Antibacterial activity against Staphylococcus aureus after 18 hrs by broth dilution method; type: functional, organism-based
[10] = tested on: Mycobacterium bovis BCG str. ATCC 35743; test: Antitubercular activity against dormant Mycobacterium bovis BCG ATCC 35743 assessed as growth inhibition at 10 ug/mL by NR assay; type: functional
[11] = Cytotoxicity against human MCF7 cells at 30 ug/mL by MTT assay; type: cell-based; settings: read-out: INH
[12] = Cytotoxicity against human HCT116 cells at 10 ug/mL by MTT assay; type: cell-based, HCT-116; settings: read-out: INH
Bacillus subtilis = test: Antibacterial activity against Bacillus subtilis after 18 hrs by broth dilution method; type: functional, organism-based
[13] = Cytotoxicity against human MCF7 cells at 10 ug/mL by MTT assay; type: cell-based; settings: read-out: INH
[14] = Cytotoxicity against human A549 cells at 30 ug/mL by MTT assay; type: cell-based; settings: read-out: INH
[15] = tested on: Mycobacterium tuberculosis; test: Antitubercular activity against dormant Mycobacterium tuberculosis H37Ra assessed as growth inhibition at 3 ug/mL by XTT reduction menadione assay; type: functional; settings: read-out: GI
[16] = Cytotoxicity against human HCT116 cells after 48 and 72 hrs by MTT assay; type: cell-based, HCT-116; settings: for GI50 at 72 h: HCT116 cells; for GI90: hct-116, 72 h
Escherichia coli = test: Antibacterial activity against Escherichia coli after 18 hrs by broth dilution method; type: functional, organism-based
[17] = Cytotoxicity against human HCT116 cells at 30 ug/mL by MTT assay; type: cell-based, HCT-116; settings: read-out: INH
[18] = tested on: Mycobacterium tuberculosis; test: Antitubercular activity against dormant Mycobacterium tuberculosis H37Ra assessed as growth inhibition at 30 ug/mL by XTT reduction menadione assay; type: functional; settings: read-out: GI
[19] = (§2) Antitubercular activity against dormant Mycobacterium bovis BCG ATCC 35743 by NR assay; type: functional, Mycobacterium bovis BCG str. ATCC 35743
[20] = tested on: Mycobacterium bovis BCG str. ATCC 35743; test: as §2; type: functional
[21] = (§3) Cytotoxicity against human A549 cells after 48 and 72 hrs by MTT assay; type: cell-based; settings: A549 cells
A549 = test: as §3; type: cell-based; settings: a549, 72 h

Row | Structure (SMILES) | inhibition of growth at 10 µg/mL [1] [%] | cytotoxicity at 10 ug/mL [2] [%] | growth inhibition (GI) [3] [%] | IC50 (Pseudomonas) [µg/mL] | MIC (Pseudomonas) [µg/mL] | cytotoxicity at 3 ug/mL [4] [%] | IC50 [5] [µg/mL] | IC90 [5] [µg/mL] | growth inhibition (GI) [6] [%] | cytotoxicity at 3 ug/mL [7] [%] | GI50 at 72 h [8] [µg/mL] | GI90 (MCF7) [µg/mL] | cytotoxicity at 3 ug/mL [9] [%] | IC50 (Staphylococcus aureus) [µg/mL] | MIC (Staphylococcus aureus) [µg/mL] | growth inhibition (GI) [10] [%] | cytotoxicity at 30 ug/mL [11] [%] | cytotoxicity at 10 ug/mL [12] [%] | IC50 (Bacillus subtilis) [µg/mL] | MIC (Bacillus subtilis) [µg/mL] | other results
1 | O=C1CSC(c2ccccc2)N1c1ccc(F)cc1 (configuration not stated) | 31.4 | 0 | 27.7 | > 30 | > 30 | -3.9 | 19.8 (≈ 72.4 µM) | > 30 | 31 | -5.4 | > 100 | > 100 | -13.4 | > 30 | > 30 | 19.5 | 7.5 | 5.3 | > 30 | > 30 | cytotoxicity at 10 ug/mL [13]: 0%; cytotoxicity at 30 ug/mL [14]: 11%; inhibition of growth at 3 µg/mL [15]: 7.5%; GI50 at 72 h [16]: > 100 µg/mL; GI90 [16]: > 100 µg/mL; IC50 (Escherichia coli): > 30 µg/mL; MIC (Escherichia coli): > 30 µg/mL; cytotoxicity at 30 ug/mL [17]: -6%; inhibition of growth at 30 µg/mL [18]: 70%; IC50 [19]: > 30 µg/mL; IC90 [20]: > 30 µg/mL; GI50 at 72 h [21]: > 100 µg/mL; GI90 (A549): > 100 µg/mL
2 | O=C1CSC(c2ccc(Cl)cc2)N1c1ccccc1 (configuration not stated) | 76.8 | 0 | -0.5 | > 30 | > 30 | -1.4 | 5.6 (≈ 19.3 µM) | > 30 | 45.6 | -7.5 | > 100 | > 100 | -10.3 | > 30 | > 30 | 15.9 | 40.1 | 0 | > 30 | > 30 | cytotoxicity at 10 ug/mL [13]: 20.6%; cytotoxicity at 30 ug/mL [14]: -20.4%; inhibition of growth at 3 µg/mL [15]: 34.3%; GI50 at 72 h [16]: > 100 µg/mL; GI90 [16]: > 100 µg/mL; IC50 (Escherichia coli): > 30 µg/mL; MIC (Escherichia coli): > 30 µg/mL; cytotoxicity at 30 ug/mL [17]: 3.9%; inhibition of growth at 30 µg/mL [18]: 82.1%; IC50 [19]: > 30 µg/mL; IC90 [20]: > 30 µg/mL; GI50 at 72 h [21]: > 100 µg/mL; GI90 (A549): > 100 µg/mL
3 | Cc1ccc(C2SCC(=O)N2c2ccc(F)cc2)cc1 (configuration not stated) | -37 | 0 | -3 | > 30 | > 30 | 22.3 | 29.8 (≈ 104 µM) | > 30 | -3.9 | 1.1 | > 100 | > 100 | 0 | > 30 | > 30 | -4 | 37.5 | 9.1 | > 30 | > 30 | cytotoxicity at 10 ug/mL [13]: 37.7%; cytotoxicity at 30 ug/mL [14]: -11.4%; inhibition of growth at 3 µg/mL [15]: 10.9%; GI50 at 72 h [16]: > 100 µg/mL; GI90 [16]: > 100 µg/mL; IC50 (Escherichia coli): > 30 µg/mL; MIC (Escherichia coli): > 30 µg/mL; cytotoxicity at 30 ug/mL [17]: 29.6%; inhibition of growth at 30 µg/mL [18]: 51.3%; IC50 [19]: > 30 µg/mL; IC90 [20]: > 30 µg/mL; GI50 at 72 h [21]: > 100 µg/mL; GI90 (A549): > 100 µg/mL
4 | COc1ccc(N2C(=O)CSC2c2ccccc2)cc1 (configuration not stated) | 86 | 0 | -0.1 | > 30 | > 30 | -10 | 2.2 (≈ 7.71 µM) | 24 (≈ 84.1 µM) | 71.9 | -6.1 | > 100 | > 100 | -0.1 | > 30 | > 30 | 30.2 | 15.4 | 7.2 | > 30 | > 30 | cytotoxicity at 10 ug/mL [13]: 8.9%; cytotoxicity at 30 ug/mL [14]: 4.4%; inhibition of growth at 3 µg/mL [15]: 65.4%; GI50 at 72 h [16]: > 100 µg/mL; GI90 [16]: > 100 µg/mL; IC50 (Escherichia coli): > 30 µg/mL; MIC (Escherichia coli): > 30 µg/mL; cytotoxicity at 30 ug/mL [17]: 10.2%; inhibition of growth at 30 µg/mL [18]: 91.4%; IC50 [19]: > 30 µg/mL; IC90 [20]: > 30 µg/mL; GI50 at 72 h [21]: > 100 µg/mL; GI90 (A549): > 100 µg/mL
